Marks after values point to notes of the source that are not given here.
How the values were obtained:
[1] = test system: normal human aortic smooth muscle cells (AoSMCs); assay: Promotion of cAMP production in AoSMC culture; type: cell-based; settings: Ao-SMCs, 72 hours of culture
Experimental: Cells (produceed by Lonza, purchased from Takara Bio Inc., product name: normal human aortic smooth muscle cells (AoSMCs), product code: CC-2571) were cultured in a medium (produced by Lonza, purchased from Takara Bio Inc., product name: smooth muscle cell medium kit-2 (5% FBS), SmGM™-2 Bullet Kit™, product code: CC-3182) for 72 hours. To the culture medium at the number of cells of 4.0×10^5 cells which was rendered to be serum free, Compound 1 dissolved in DMSO was added so as to be 100 nM or 1000 nM. As a control, the same amount of DMSO was added to the culture medium. After 72 hours of culture, the supernatant was recovered and cAMP in the culture medium was measured with the cAMP EIA kit Code. 581001.

NHDFs and HUVECs = assay: Induction of internal regenerating factors in co-culture with NHDFs and HUVECs; type: cell-based, human

## O=C(O)COc1cccc2c1CCC=C2CCO/N=C(\c1ccccc1)c1cccnc1 [Compound 1, (E)-[5-[2-[1-phenyl-1-(3-pyridyl)methylidenaminoxy]ethyl]-7,8-dihydronaphthalen-1-yloxy]acetic acid]
[1]; 100 nM
  cAMP in the culture medium, Average: 50.6* nM
[1]; 1000 nM
  cAMP in the culture medium, Average: 105.4* nM
NHDFs and HUVECs
  induction of internal regenerating factors (HGF, VEGF, EGF, IGF-1, SDF-1, G-CSF): induce
